Assay results as given in patent publication US20090298938A1, “USE OF SEMI SYNTHETIC ANALOGUES OF BOSWELLIC ACIDS FOR ANTICANCER ACTIVITY” (COUNCIL OF SCIENTIFIC & INDUSTRIAL RESEARCH, priority 2008, published 2009).

Columns and labels:
Format in all cases: cell-based, human
HT-29 colon cancer cells = test: In vitro cytotoxicity, SRB assay, HT-29
Procedure: (§1) The semi-synthetic analogues of formula 1 have been subjected to in vitro cytotoxicity screening in a panel of human cancer cell lines using following methodology. The human cancer cell lines were obtained either from National Center for Cell Science, Pune or National Cancer Institute, Fredrick, Md., USA. Cells were grown in tissue culture flasks in complete growth medium (RPMI-1640 medium with 2 mM glutamine, 100 µg/ml streptomycin, pH 7.4, sterilized by filtration and supplemented with 10% sterilized fetal calf serum and 100 units/ml penicillin before use) at 37° C. in an atmosphere of 5% CO2 and 90% relative humidity in a carbon dioxide incubator. The cells at sub-confluent stage were harvested from flask by treatment with trypsin (0.05% trypsin in PBS containing 0.02% EDTA) and suspended in complete growth medium. Cells with cell viability of more than 97% by trypan blue exclusion technique were used for determination of cytotoxicity.
(§2) Test material were dissolved in DMSO (dimethyl sulphoxide) to obtain a stock solution of 2×10^−2M. The stock solution was serially diluted with complete growth medium containing 50 μg/ml of gentamycin to obtain working test solutions of required concentrations.
(§3) The suspension of human cancer cell lines of required cell density in complete growth medium was prepared and cell suspension (100 μl/well) of each cell line was added to wells of 96-well tissue culture plate. Suitable blanks and controls were also included. The plates were incubated for 24 hrs in a carbon dioxide incubator.
(§4) The working test solutions of different concentrations (100 μl/well) were added after 24 hr incubation. The plates were further incubated for 48-hrs after addition of the test materials. After incubation, the cell growth was stopped by gently layering of 50 μl of TCA (50% trichloroacetic acid) on top of the medium in all the wells. The plates were incubated at 4° C. for one hour to fix the cells attached to bottom of the wells. Liquids of all the wells were gently pipetted out and discarded. The plates were washed five times with distilled water to remove TCA, growth medium, low molecular weight metabolites, serum proteins etc. The plates were air dried.
(§5) Cell growth was measured by staining with sulforhodamine B dye (SRB). The SRB solution (100 μl, 0.4% in 1% acetic acid) was added to each well and the plates were incubated at room temperature for 30 minutes. The unbound SRB was quickly removed by washing the wells five times with 1% acetic acid solution and plates were air dried. Tris buffer (100 μl, 0.01 M, pH 10.4) was added to all the wells and plates were gently stirred for 5 minutes on a mechanical stirrer. The optical density was recorded on ELISA reader at 540 nm.
(§6) Cell growth in the presence of test material was calculated in terms of the percentage of growth inhibition. The in vitro cytotoxicity of four natural boswellic acid i.e. boswellic acid, acetyl boswellic acid, 11-keto-boswellic acids, acetyl-11-ketio-boswellic acid on various cancer cell lines has been examined and typical results are given in the succeeding table. Based on their cytotoxicity profile the analogues of formula 1 were studied for inhibition of cell proliferation by using MTT assay method. […] The induction of apoptosis in HL-60 cells was also validated by generation of DNA fragmentation.
(§7) Assay of cytotoxicity potential of test materials is a primary standard procedure for seeking lead molecules for development of anti-cancer leads. Human cancer cells after trypsinization into single cell suspension were grown in 96-well culture plate for 24 hr. Cells were treated with indicated doses of test analogues and incubated in CO2 incubator for 48 hr. Thereafter, cells were stained with sulforhodamine B dye, and the bound dye was eluted to measure the optical density indicating cell growth in Elisa Reader at 540 nm [Monks et al., 1991]. […]

PC-3 cells = test: In vitro cytotoxicity, SRB assay, PC-3
Procedure: as §1, §2, §3, §4, §5, §6, §7

Hep-2 cells = test: In vitro cytotoxicity, SRB assay, Hep-2
Procedure: as §1, §2, §3, §4, §5, §6, §7

[1] = test system: SW-620 colon cancer cells; test: In vitro cytotoxicity, SRB assay, SW-620
Procedure: as §1, §2, §3, §4, §5, §6, §7

[2] = test system: Colo-205 colon cancer cells; test: In vitro cytotoxicity, SRB assay, Colo-205
Procedure: as §1, §2, §3, §4, §5, §6, §7

[3] = Conc. 5 × 10^5 (r27-r29: 5 × 10^−5), 48 hr, Table 1
[4] = Conc. 5 × 10^−5, 48 hr, natural boswellic acids

Compound: CCC(=O)OC1CCC2(C)C(CCC3(C)C2C(=O)C=C2C4C(C)C(C)CCC4(C)CCC23C)C1(C)C(=O)O (stereo not shown) [1, R = COCH2CH3, R1 = H, R4 + R5 = O]
- Growth inhibition % HT-29 Colon (HT-29 colon cancer cells; [3]): 67%
- Growth inhibition % PC-3 (PC-3 cells; [3]): 99%
- Growth inhibition % Hep-2 (Hep-2 cells; [3]): 65%
- Growth inhibition % SW-620 Colon [1, 3]: 75%
- Growth inhibition % Colo-205 Colon [2, 3]: 80%

Compound: CC1CCC2(C)CCC3(C)C(=CC(=O)C4C5(C)CCC(O)C(C)(C(=O)O)C5CCC43C)C2C1C (stereo not shown) [1, R = H, R1 = H, X = O]
- Growth inhibition % HT-29 Colon (HT-29 colon cancer cells; [3]): 46%
- Growth inhibition % PC-3 (PC-3 cells; [3]): 68%
- Growth inhibition % Hep-2 (Hep-2 cells; [3]): 53%
- Growth inhibition % SW-620 Colon [1, 3]: 49%
- Growth inhibition % Colo-205 Colon [2, 3]: 52%

Compound: CCCC(=O)OC1CCC2(C)C(CCC3(C)C2CC=C2C4C(C)C(C)CCC4(C)CCC23C)C1(C)C(=O)O (stereo not shown) [1,R3O = COCH2CH2CH3, R1 = H, R4 = R5 = H]
- Growth inhibition % HT-29 Colon (HT-29 colon cancer cells; [3]): 54%
- Growth inhibition % PC-3 (PC-3 cells; [3]): 80%
- Growth inhibition % Hep-2 (Hep-2 cells; [3]): 65%
- Growth inhibition % SW-620 Colon [1, 3]: 83%
- Growth inhibition % Colo-205 Colon [2, 3]: 71%

Compound: CC1CCC2(C)CCC3(C)C(=CC(=O)C4C5(C)CCC(OC(=O)CCC(=O)O)C(C)(C(=O)O)C5CCC43C)C2C1C (stereo not shown) [1,R3O = —COCH2CH2COOH R1 = H, R4 + R5 = O]
- Growth inhibition % HT-29 Colon (HT-29 colon cancer cells; [3]): 16%
- Growth inhibition % PC-3 (PC-3 cells; [3]): 60%
- Growth inhibition % Hep-2 (Hep-2 cells; [3]): 17%
- Growth inhibition % SW-620 Colon [1, 3]: 2%
- Growth inhibition % Colo-205 Colon [2, 3]: 29%

Compound: CC1CCC2(C)CCC3(C)C(=CC(=O)C4C5(C)CCC(OC(=O)CCC(=O)O)C(C)(C(=O)O)C5CCC43C)C2C1C (stereo not shown) [1,R3O = —COCH2CH2COOH, R1 = H, R4 + R5= O]
- Growth inhibition % HT-29 Colon (HT-29 colon cancer cells; [3]): 3%
- Growth inhibition % PC-3 (PC-3 cells; [3]): 38%
- Growth inhibition % Hep-2 (Hep-2 cells; [3]): 7%
- Growth inhibition % SW-620 Colon [1, 3]: 0%
- Growth inhibition % Colo-205 Colon [2, 3]: 1%

Compound: C[C@H]1[C@H](C)CC[C@]2(C)CC[C@]3(C)C(=CC(=O)[C@@H]4[C@@]5(C)CC[C@@H](O)[C@](C)(C(=O)O)[C@@H]5CC[C@]43C)[C@H]12 [11-keto-boswellic acid, reference compound]
- Growth inhibition % HT-29 Colon (HT-29 colon cancer cells; [4]): 38%
- Growth inhibition % PC-3 (PC-3 cells; [4]): 100%
- Growth inhibition % Hep-2 (Hep-2 cells; [4]): 34%
- Growth inhibition % SW-620 Colon [1, 4]: 28%
- Growth inhibition % Colo-205 Colon [2, 4]: 50%

Compound: CC(=O)O[C@@H]1CC[C@@]2(C)[C@@H](CC[C@]3(C)[C@@H]2C(=O)C=C2[C@@H]4[C@@H](C)[C@H](C)CC[C@]4(C)CC[C@]23C)[C@@]1(C)C(=O)O [Acetyl-11-keto-boswellic acid, reference compound]
- Growth inhibition % HT-29 Colon (HT-29 colon cancer cells; [4]): 91%
- Growth inhibition % PC-3 (PC-3 cells; [4]): 79%
- Growth inhibition % Hep-2 (Hep-2 cells; [4]): 62%
- Growth inhibition % SW-620 Colon [1, 4]: 91%
- Growth inhibition % Colo-205 Colon [2, 4]: 89%

Compound: C[C@H]1[C@H](C)CC[C@]2(C)CC[C@]3(C)C(=CC[C@@H]4[C@@]5(C)CC[C@@H](O)[C@](C)(C(=O)O)[C@@H]5CC[C@]43C)[C@H]12 [Boswellic acid]
- Growth inhibition % HT-29 Colon (HT-29 colon cancer cells; [4]): 69%
- Growth inhibition % PC-3 (PC-3 cells; [4]): 100%
- Growth inhibition % Hep-2 (Hep-2 cells; [4]): 45%
- Growth inhibition % SW-620 Colon [1, 4]: 61%
- Growth inhibition % Colo-205 Colon [2, 4]: 86%

Compound: CO[C@@]12[C@H](COC(N)=O)C3=C(C(=O)C(C)=C(N)C3=O)N1C[C@@H]1N[C@@H]12 [Mitomycin C, reference compound]
- Growth inhibition % HT-29 Colon (HT-29 colon cancer cells; Conc. 1 × 10^6, Table 2): 33%
- Growth inhibition % HT-29 Colon (HT-29 colon cancer cells; Conc. 1 × 10^7, Table 2): 19%
- Growth inhibition % PC-3 (PC-3 cells; Conc. 1 × 10^6, Table 2): 24%
- Growth inhibition % PC-3 (PC-3 cells; Conc. 1 × 10^7, Table 2): 18%
- Growth inhibition % Hep-2 (Hep-2 cells; Conc. 1 × 10^6, Table 2): 46%
- Growth inhibition % Hep-2 (Hep-2 cells; Conc. 1 × 10^7, Table 2): 12%
- Growth inhibition % SW-620 Colon ([1]; Conc. 1 × 10^6, Table 2): 57%
- Growth inhibition % SW-620 Colon ([1]; Conc. 1 × 10^7, Table 2): 27%
- Growth inhibition % Colo-205 Colon ([2]; Conc. 1 × 10^6, Table 2): 28%
- Growth inhibition % Colo-205 Colon ([2]; Conc. 1 × 10^7, Table 2): 41%

Compound: Acetyl Boswellic acid [reference compound]
- Growth inhibition % HT-29 Colon (HT-29 colon cancer cells; [4]): 96%
- Growth inhibition % PC-3 (PC-3 cells; [4]): 45%
- Growth inhibition % Hep-2 (Hep-2 cells; [4]): 88%
- Growth inhibition % SW-620 Colon [1, 4]: 97%
- Growth inhibition % Colo-205 Colon [2, 4]: 95%
